Test results reported in US11345702B1 (Myoforte Therapeutics, Inc., priority 2020, dated 2022).

Target: 15-PGDH/HPGD (Homo sapiens (Human), UniProt P15428)
Test: hPGDH inhibitor screening biochemical assay
Conditions: read-out: hPGDH: Average IC50
Method: A hydroxyprostaglandin dehydrogenase inhibition screening biochemical assay can be performed to assess the synthesized inhibitors provided herein. Provided herein is an exemplary biochemical assay for hPGDH inhibitor screening.
The in vitro biochemical assay can be performed in white, 384 plates in total 20 μl reaction volume consisting of 10 nM of 15-PGDH/HPGD (R&D System #5660-DH), 15 μM Prostaglandin E2 (Sigma, Cat #P5640-10MG) and 0.25 mM (3-Nicotinamide adenine dinucleotide sodium salt (Sigma, Cat #N0632-5G) made in reaction buffer (50 mM Tris-HCl, pH 7.5, 0.01% Tween 20) at 10-point dose response curve for test/tool compounds. Briefly, 5 μl (4×) of compounds solution and 5 μl (final concentration, 10 nM) of enzyme solution is added to white 384 well plates and incubated for 10 mins at 37° C. 5 μl (4×) of Prostaglandin E2 and 5 μl (4×) of β-Nicotinamide adenine dinucleotide sodium salt is added to the wells and incubated for 10 mins at room temperature. Fluorescence is recorded at ex/em=340 nm/485 nm. The percentage (%) inhibition of enzyme activity was determined relative to positive control (1% DMSO) and IC50 was calculated using GraphPad prism software (four parameter-variable slope equation).

Sequence of 15-PGDH/HPGD (P15428 whole entry): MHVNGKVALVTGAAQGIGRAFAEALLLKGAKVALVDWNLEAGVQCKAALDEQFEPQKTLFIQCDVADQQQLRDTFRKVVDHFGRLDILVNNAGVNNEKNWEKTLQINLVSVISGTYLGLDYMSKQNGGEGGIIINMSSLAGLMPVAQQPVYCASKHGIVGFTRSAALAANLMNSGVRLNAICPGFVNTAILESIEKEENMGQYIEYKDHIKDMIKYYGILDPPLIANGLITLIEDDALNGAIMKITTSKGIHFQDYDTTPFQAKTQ

| Structure (SMILES) | IC50 [nM] |
| --- | --- |
| COc1ccc(-n2c(N)nc3cc(C(=O)N4CCC(F)CC4)cnc32)cc1 [MF-DH-115] | 100 to 1000 |
| COc1ccc(-n2c(NC(C)=O)nc3cc(C(=O)N4CCC(F)CC4)cnc32)cc1 [MF-DH-116] | ≥ 1000 |
| CC(C)(C#Cc1ccc(-n2ccc3cc(C(=O)N4CCC(F)(F)CC4)cnc32)cn1)S(C)(=O)=O [MF-DH-465, (4,4-difluoropiperidin-1-yl)(1-(6-(3-methyl-3-(methylsulfonyl)but-1-yn-1-yl)pyridin-3-yl)-1H-pyrrolo[2,3-b]pyridin-5-yl)methanone] | 100 to 1000 |
| COc1ccc(Cn2cnc(-n3ccc4cc(C(=O)N5CCCCC5)cnc43)c2)cc1 [MF-DH-128] | 100 to 1000 |
| CC1(C)CN(C(=O)c2ccc3c(c2)ncn3-c2cccc(Cl)c2)C1 [MF-PGDH-105] | 100 to 1000 |
| COc1ccccc1C(=O)N(C)c1ccc(C(=O)N2CCCCC2)cc1 [MF-PGDH-042] | ≥ 1000 |
| N#Cc1ccc(-n2ccc3nc(C(=O)N4CCC(F)CC4)ccc32)cc1 [MF-DH-462, 4-(5-(4-fluoropiperidine-1-carbonyl)-1H-pyrrolo[3,2-b]pyridin-1-yl)benzonitrile] | ≥ 1000 |
| N#Cc1cncc(-n2ccc3cc(C(=O)N4CCCCC4)cnc32)c1 [MF-DH-364] | < 100 |
| CS(=O)(=O)n1ccc2cc(C(=O)N3CCCCC3)cnc21 [MF-DH-311, (1-(methylsulfonyl)-1H-pyrrolo[2,3-b]pyridin-5-yl)(piperidin-1-yl)methanone] | ≥ 1000 |
| COc1ccc(-n2ccc3cc(C(=O)N4[C@H](C)CCC[C@@H]4C)cnc32)cc1 [MF-DH-328, ((2R,6S)-2,6-dimethylpiperidin-1-yl)(1-(4-methoxyphenyl)-1H-pyrrolo[2,3-b]pyridin-5-yl)methanone] | 100 to 1000 |
| O=C(c1cnc2c(ccn2-c2cccc(C(=O)N3CCS(=O)(=O)C3)c2)c1)N1CCC(F)(F)CC1 [MF-DH-497, (4,4-difluoropiperidin-1-yl)(1-(3-(1,1-dioxidothiazolidine-3-carbonyl)phenyl)-1H-pyrrolo[2,3-b]pyridin-5-yl)methanone] | < 100 |
| Cc1cn(-c2cncnc2)c2ccc(C(=O)N3CCC(F)CC3)cc12 [MF-DH-178, (4-fluoropiperidin-1-yl)(3-methyl-1-(pyrimidin-5-yl)-1H-indol-5-yl)methanone] | 100 to 1000 |
| NC(=O)c1cncc(-n2ccc3cc(C(=O)N4CCCCC4)cnc32)c1 [MF-DH-361] | < 100 |
| O=C(c1cnc2c(ccn2-c2c[nH]cn2)c1)N1CCCCC1 [MF-PGDH-075] | < 100 |
| CC(N)c1cccc(-n2ccc3cc(C(=O)N4CCCCC4)cnc32)c1 (stereo not drawn) [MF-DH-376, (1-(3-(1-aminoethyl)phenyl)-1H-pyrrolo[2,3-b]pyridin-5-yl)(piperidin-1-yl)methanone] | 100 to 1000 |
| O=C(O)c1ccc(-n2ccc3cc(C(=O)N4CCCCC4)cnc32)cc1 [MF-DH-433, 4-(5-(piperidine-1-carbonyl)-1H-pyrrolo[2,3-b]pyridin-1-yl)benzoic acid] | < 100 |
| Cn1cc(-c2cccc(Cl)c2)c2ccc(C(=O)N3CCCCC3)cc21 [MF-PGDH-054, (3-(3-chlorophenyl)-1-methyl-1H-indol-6-yl)(piperidin-1-yl)methanone] | < 100 |
| O=C(c1cnc2c(c1)ncn2-c1ccc(O)cc1)N1CCC(F)CC1 [MF-DH-238] | 100 to 1000 |
| N#Cc1cccc(-n2ccc3cc(C(=O)N4CCCCC4)cnc32)c1 [MF-DH-300] | < 100 |
| O=C(c1cnc2c(ccn2-c2ccc(CO)cc2)c1)N1CCCCC1 [MF-DH-307] | < 100 |
| NC(=O)c1ncc(-n2ccc3cc(C(=O)N4CCCCC4)cnc32)cn1 [MF-DH-384] | < 100 |
| COc1ccc(-n2cnc3cc(C(=O)N4CCCCC4)ccc32)cc1Cl [MF-PGDH-024, (1-(3-chloro-4-methoxyphenyl)-1H-benzo[d]imidazol-5-yl)(piperidin-1-yl)methanone] | < 100 |
| CC(C)(O)c1cccc(-n2ccc3cc(C(=O)N4CCCCC4)cnc32)c1 [MF-DH-375] | 100 to 1000 |
| Cc1nc2cc(C(=O)N3CCCCC3)ccc2n1-c1cccc(Cl)c1 [MF-PGDH-091] | < 100 |
| NC(=O)CCc1nc2cc(C(=O)N3CCCCC3)ccc2n1-c1cccc(Cl)c1 [MF-PGDH-035, 3-(1-(3-chlorophenyl)-5-(piperidine-1-carbonyl)-1H-benzo[d]imidazol-2-yl)propanamide] | < 100 |
| N#Cc1ccc(-n2ccc3cc(C(=O)N4CCC(F)(F)CC4)cnc32)nc1 [MF-DH-440] | 100 to 1000 |
| O=C(c1ccc2c(c1)ncn2-c1cccc(Cl)c1)N1CCC(F)(F)C1 [MF-PGDH-047] | ≥ 1000 |
| O=C(c1ccc2c(c1)ncn2-c1cccc(Cl)c1)N1CC2CCC(C2)C1 [MF-PGDH-018] | < 100 |
| COc1ccc(-n2cnc3cc(C(=O)N4CCC(F)CC4)ccc32)nc1 [MF-DH-141] | < 100 |

Continued, values first:

| IC50 [nM] | Structure (SMILES) |
| --- | --- |
| < 100 | O=C(c1cnc2c(ccn2-c2cncc(Cl)c2)c1)N1CCCCC1 [MF-DH-295] |
| < 100 | CCOc1ccc(-n2ccc3cc(C(=O)N4CCCCC4)cnc32)cc1 [MF-DH-306] |
| < 100 | O=C(c1ccc2c(c1)ncn2-c1cccc(Cl)c1)N1CC(F)C1 [MF-PGDH-106] |
| < 100 | O=C(c1cnc2c(c1)c(Cl)cn2-c1ccc2c(c1)OC(F)(F)O2)N1CCCCC1 [MF-DH-251] |
| < 100 | NC(=O)c1cccc(-n2ccc3cc(C(=O)N4CCCCC4)cnc32)c1 [MF-DH-301] |
| < 100 | O=C(c1cnc2c(ccn2-c2cnccn2)c1Cl)N1CCC(F)CC1 [MF-DH-146] |
| < 100 | Cc1nc(-c2cccc(-n3ccc4cc(C(=O)N5CCCCC5)cnc43)c2)no1 [MF-DH-402] |
| < 100 | Cc1cc(-n2ccc3cc(C(=O)N4CCCCC4)cnc32)cnc1N [MF-DH-392] |
| < 100 | O=C(c1cnc2c(c1)c(Cl)cn2-c1ccc2c(c1)OC(F)(F)O2)N1CCC(F)CC1 [MF-DH-250] |
| < 100 | O=C(c1ccn2c(-c3cccc(Cl)c3)cnc2c1)N1CCCCC1 [MF-PGDH-007, (3-(3-chlorophenyl)imidazo[1,2-a]pyridin-7-yl)(piperidin-1-yl)methanone] |
| < 100 | O=C(O)Cc1ccc(-n2ccc3cc(C(=O)N4CCC(F)(F)CC4)cnc32)cc1 [MF-DH-426, 2-(4-(5-(4,4-difluoropiperidine-1-carbonyl)-1H-pyrrolo[2,3-b]pyridin-1-yl)phenyl)acetic acid] |
| < 100 | CN(C)C(=O)c1cncc(-n2ccc3cc(C(=O)N4CCCCC4)cnc32)c1 [MF-DH-363] |
| < 100 | CCOC(=O)CCc1nc2cc(C(=O)N3CCCCC3)ccc2n1-c1cccc(Cl)c1 [MF-PGDH-033, ethyl 3-(1-(3-chlorophenyl)-5-(piperidine-1-carbonyl)-1H-benzo[d]imidazol-2-yl)propanoate] |
| < 100 | O=C(c1ccc2c(c1)ncn2-c1ccc2c(c1)OCO2)N1CCCCC1 [MF-PGDH-062] |
| < 100 | O=C(c1cnc2c(c1)c(Cl)cn2-c1cccnc1)N1CCC(F)CC1 [MF-DH-135] |
| < 100 | O=C(c1cnc2c(ccn2-c2ccc3[nH]ncc3c2)c1)N1CCCCC1 [MF-DH-319, (1-(1H-indazol-5-yl)-1H-pyrrolo[2,3-b]pyridin-5-yl)(piperidin-1-yl)methanone] |
| < 100 | O=C(c1cnc2c(ccn2-c2ccn3ccnc3c2)c1)N1CCCCC1 [MF-DH-318] |
| < 100 | N#Cc1cccc(-n2ccc3cc(C(=O)N4CCC(F)CC4)cnc32)c1 [MF-DH-344] |
| < 100 | NCc1ccc(-n2ccc3cc(C(=O)N4CCCCC4)cnc32)cc1 [MF-DH-304] |
